In patent US20130142883A1, “MEDICAL FOOD FOR THE DIETARY MANAGEMENT OF DEPRESSION AND ANXIETY AND METHODS THEREOF” (priority 2011, published 2013):

What was measured:
C57BI/6J mice = assay: Sucrose preference test (anhedonia) under chronic stress; format: in vivo; settings: young adult male mice; water one week before and during ten days of chronic stress; 10th day; Citalopram 15 mg/kg per day per os; mean±SEM
Procedure: Citalopram 15 mg/kg per day per os was used as the reference antidepressant drug. There was no difference between groups at baseline. At 10th day of the stress procedure, animals were tested on the sucrose preference, common test for assessment of anhedonia. Results are presented in Table 6 as mean±SEM percent of sucrose preference.

C57BI/6 mice = assay: Dark-light box test after 14 days of drinking water; format: in vivo; settings: three-months-old male mice; water ad libitum 14 days; Diazepam 2.5 mg/kg bolus 30 min prior the test; mean±SEM
Procedure: Bolus injection of anxiolytic drug Diazepam (2.5 mg/kg, 30 min prior the test) was used as a positive reference control.

| Structure (SMILES) | Sucrose preference (C57BI/6J mice) [%] | Time (time spent in the lit box) (C57BI/6 mice) [s] |
| --- | --- | --- |
| CN(C)CCCC1(c2ccc(F)cc2)OCc2cc(C#N)ccc21 (centres unmarked) [Citalopram] | 70.0 ± 3.0 | – |
| CN1C(=O)CN=C(c2ccccc2)c2cc(Cl)ccc21 [Diazepam] | – | 155.2 ± 7.8 |
